According to PubChem BioAssay AID2060503 (Molecular Pharmacology Branch, DTP, NCI, 2025):

Tested on: 817829-284-R-J1-PDC complex spheroids, viability
Assay: Anticancer human tumor 817829-284-R-J1-PDC patient-derived colon adenocarcinoma cell line growth inhibition [GQUAD]
Details: for IC50: curve of first compound; for viability, T/C: stronger effect = lower value
Source text: DNA G-quadruplex Stabilizer Agents in Combinations in Complex Spheroids
A high-throughput screen of multi-cell type tumor spheroids was designed to identify active combinations of DNA G-quadruplex stabilizer agents and targeted small molecules. Complex spheroids include a stromal component modeled by human endothelial cells (HUVEC) and fibroblasts modeled by human mesenchymal stem cells (MSCs). The concentration ranges selected for each drug and investigational agent were based upon clinically achievable concentrations if the clinical Cmax of the agent was known.
Compounds. The drugs and investigational agents: pidnarulex (CX-5461; NSC782164), APTO-253 (NSC789042), BRACO-19 (NSC847499), peposertib (NSC802822), ceralasertib (NSC780249), elimusertib (NSC800525), camonsertib (NSC841442), AZD-1390 (NSC803789), olaparib (NSC753686), talazoparib (NSC767125), ART-558 (NSC835418), sotorasib (NSC818433), MRTX-1133 (NSC836407), SN-38 (NSC673596), topotecan (NSC609699), etoposide (NSC141540), doxorubicin (NSC123127), gemcitabine (NSC613327), 5-fluorouracil (NSC19893), paclitaxel (NSC125973), vemurafenib (NSC761431), panobinostat (NSC761190), R-306465 (JNJ-16241199; NSC773264), adavosertib (NSC754352), TP-3654 (NSC805149), carboplatin (NSC241240), KSQ-4279 (NSC840948), and staurosporine (NSC755774) were obtained from the National Cancer Institute (NCI) Developmental Therapeutics Program Chemical Repository (34). The FDA-approved anticancer drug set is available from the NCI Developmental Therapeutics Program. […] The stock solutions were prepared in dimethyl sulfoxide (DMSO, Sigma-Aldrich, St. Louis, MO, cat. D2650) at 800-fold the tested concentration and stored at -70 degrees C prior to their use. All drugs and investigational agents were tested over a range starting from a high concentration at or near the clinical Cmax and decreasing in half-log increments. If the clinical Cmax for an agent had not been determined, the highest concentration tested was 10 microM.
2.3 Cell Culture. All cells were maintained in an incubator at 37 degrees C and 5% CO2 with 95% humidity. The PDC lines were cultured according to standard operating procedures established by the NCI PDMR. All PDCs were thawed and cultured in Matrigel-coated flasks prepared with a working solution of 1X Ham's F-12 nutrient mix, without supplementation (Invitrogen, cat. 11765054), 100 U/mL penicillin-streptomycin (Invitrogen, cat. 15140122), and 2.5% Matrigel (Corning Inc., cat. 354248) for the first three passages. The 857933-349-R-J2-PDC line was cultured in 6C/Colon 1B media, which includes advanced DMEM/F-12 (Thermo Fisher Scientific, cat. 12634028), 10 mM HEPES (Thermo Fisher Scientific, cat. 15630080), 1X GlutaMAX supplement (Thermo Fisher Scientific, cat. 35050061), 0.1 mg/mL primocin (InvivoGen, cat. ant-pm-2), 10% defined fetal bovine serum, heat inactivated (HyClone Laboratories Inc., cat. SH30070.03HI), 50% L-WRN conditioned media (ATCC, cat. CRL-3276), 1.25 mM N-Acetyl-L-cysteine (Sigma-Aldrich, cat. A9165), 10 mM nicotinamide (Sigma-Aldrich, cat. N0636), 1X B-27 supplement (Thermo Fisher Scientific, cat. 17504044), 1X N-2 supplement (Thermo Fisher Scientific, cat. 17502048), 10 microM Y-27632 dihydrochloride (Tocris Bioscience, cat. 1254), and 50 ng/mL human EGF recombinant protein (Thermo Fisher Scientific, cat. PHG0311). The 485176-168-R4-J1-PDC line was cultured in Panc media, which includes all 6C/Colon 1B media components plus 100 ng/mL human FGF-10 (Thermo Fisher Scientific, cat. 100-26), 500 nM SB-431542 (Selleckchem, cat. S1067), and gastrin (Tocris, cat. 3006).
[…]

[1] = second compound 0.0316 µM, first compound 0.0316 µM
[2] = second compound 0.0316 µM, first compound 0.316 µM
[3] = second compound 0.1 µM, first compound 0.0316 µM
[4] = second compound 0.1 µM, first compound 0.316 µM
[5] = second compound 0.316 µM, first compound 0.0316 µM
[6] = second compound 0.316 µM, first compound 0.316 µM
[7] = second compound 1 µM, first compound 0.0316 µM
[8] = second compound 1 µM, first compound 0.316 µM
[9] = second compound 3.16 µM, first compound 0.0316 µM
[10] = second compound 3.16 µM, first compound 0.316 µM
[11] = second compound 10 µM, first compound 0.0316 µM
[12] = second compound 10 µM, first compound 0.316 µM
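Further: spheroids exposed to agents for 7 days before readout.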
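Wherever viability, T/C is given: percent viability relative to DMSO vehicle control taken as 100%.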

## C=CC(=O)N1CCN(c2nc(=O)n(-c3c(C)ccnc3C(C)C)c3nc(-c4c(O)cccc4F)c(F)cc23)C(C)C1 (centres undefined) + CN(C)c1ccc(Nc2c3ccc(NC(=O)CCN4CCCC4)cc3nc3cc(NC(=O)CCN4CCCC4)ccc23)cc1
Second compound 0.0316 µM
  IC50: > 10000 nM
Second compound 0.1 µM
  IC50: > 10000 nM
Second compound 0.316 µM
  IC50: > 10000 nM
Second compound 1 µM
  IC50: > 10000 nM
Second compound 3.16 µM
  IC50: > 10000 nM
Second compound 10 µM
  IC50: 7180 nM
[1]
  viability, T/C: 101%
Second compound 0.0316 µM, first compound 0.1 µM
  viability, T/C: 103%
[2]
  viability, T/C: 97.5%
Second compound 0.0316 µM, first compound 1 µM
  viability, T/C: 99.4%
Second compound 0.0316 µM, first compound 3.16 µM
  viability, T/C: 83.7%
Second compound 0.0316 µM, first compound 10 µM
  viability, T/C: 80%
[3]
  viability, T/C: 99.7%
Second compound 0.1 µM, first compound 0.1 µM
  viability, T/C: 103%
[4]
  viability, T/C: 104%
Second compound 0.1 µM, first compound 1 µM
  viability, T/C: 98.7%
Second compound 0.1 µM, first compound 3.16 µM
  viability, T/C: 106%
Second compound 0.1 µM, first compound 10 µM
  viability, T/C: 85.4%
[5]
  viability, T/C: 91.3%
Second compound 0.316 µM, first compound 0.1 µM
  viability, T/C: 107%
[6]
  viability, T/C: 89.6%
Second compound 0.316 µM, first compound 1 µM
  viability, T/C: 108%
Second compound 0.316 µM, first compound 3.16 µM
  viability, T/C: 86.3%
Second compound 0.316 µM, first compound 10 µM
  viability, T/C: 76.2%
[7]
  viability, T/C: 96.2%
Second compound 1 µM, first compound 0.1 µM
  viability, T/C: 107%
[8]
  viability, T/C: 92.3%
Second compound 1 µM, first compound 1 µM
  viability, T/C: 105%
Second compound 1 µM, first compound 3.16 µM
  viability, T/C: 92.2%
Second compound 1 µM, first compound 10 µM
  viability, T/C: 72.1%
[9]
  viability, T/C: 95.6%
Second compound 3.16 µM, first compound 0.1 µM
  viability, T/C: 97.5%
[10]
  viability, T/C: 98.8%
Second compound 3.16 µM, first compound 1 µM
  viability, T/C: 92.3%
Second compound 3.16 µM, first compound 3.16 µM
  viability, T/C: 92.3%
Second compound 3.16 µM, first compound 10 µM
  viability, T/C: 69.3%
[11]
  viability, T/C: 101%
Second compound 10 µM, first compound 0.1 µM
  viability, T/C: 105%
[12]
  viability, T/C: 92.7%
Second compound 10 µM, first compound 1 µM
  viability, T/C: 92.3%
Second compound 10 µM, first compound 3.16 µM
  viability, T/C: 84.3%
Second compound 10 µM, first compound 10 µM
  viability, T/C: 36.4%

## CC[C@@]1(O)C(=O)OCc2c1cc1n(c2=O)Cc2cc3c(CN(C)C)c(O)ccc3nc2-1 + CN(C)c1ccc(Nc2c3ccc(NC(=O)CCN4CCCC4)cc3nc3cc(NC(=O)CCN4CCCC4)ccc23)cc1
Second compound 0.0316 µM
  IC50: 67.8 nM
Second compound 0.1 µM
  IC50: 59 nM
Second compound 0.316 µM
  IC50: 67.9 nM
Second compound 1 µM
  IC50: 63.7 nM
Second compound 3.16 µM
  IC50: 68.3 nM
Second compound 10 µM
  IC50: 75.7 nM
Second compound 0.0316 µM, first compound 0.000999 µM
  viability, T/C: 80.2%
Second compound 0.0316 µM, first compound 0.00316 µM
  viability, T/C: 104%
Second compound 0.0316 µM, first compound 0.00999 µM
  viability, T/C: 94.8%
[1]
  viability, T/C: 65.9%
Second compound 0.0316 µM, first compound 0.0999 µM
  viability, T/C: 45.4%
[2]
  viability, T/C: 35.5%
Second compound 0.1 µM, first compound 0.000999 µM
  viability, T/C: 97.1%
Second compound 0.1 µM, first compound 0.00316 µM
  viability, T/C: 122%
Second compound 0.1 µM, first compound 0.00999 µM
  viability, T/C: 108%
[3]
  viability, T/C: 59.8%
Second compound 0.1 µM, first compound 0.0999 µM
  viability, T/C: 44.5%
[4]
  viability, T/C: 38.5%
Second compound 0.316 µM, first compound 0.000999 µM
  viability, T/C: 89.7%
Second compound 0.316 µM, first compound 0.00316 µM
  viability, T/C: 123%
Second compound 0.316 µM, first compound 0.00999 µM
  viability, T/C: 107%
[5]
  viability, T/C: 66.7%
Second compound 0.316 µM, first compound 0.0999 µM
  viability, T/C: 46.4%
[6]
  viability, T/C: 35.6%
Second compound 1 µM, first compound 0.000999 µM
  viability, T/C: 111%
Second compound 1 µM, first compound 0.00316 µM
  viability, T/C: 108%
Second compound 1 µM, first compound 0.00999 µM
  viability, T/C: 105%
[7]
  viability, T/C: 62.9%
Second compound 1 µM, first compound 0.0999 µM
  viability, T/C: 45.9%
[8]
  viability, T/C: 34%
Second compound 3.16 µM, first compound 0.000999 µM
  viability, T/C: 114%
Second compound 3.16 µM, first compound 0.00316 µM
  viability, T/C: 99.9%
Second compound 3.16 µM, first compound 0.00999 µM
  viability, T/C: 101%
[9]
  viability, T/C: 67.7%
Second compound 3.16 µM, first compound 0.0999 µM
  viability, T/C: 41.5%
[10]
  viability, T/C: 32.4%
Second compound 10 µM, first compound 0.000999 µM
  viability, T/C: 102%
Second compound 10 µM, first compound 0.00316 µM
  viability, T/C: 101%
Second compound 10 µM, first compound 0.00999 µM
  viability, T/C: 84%
[11]
  viability, T/C: 65.8%
Second compound 10 µM, first compound 0.0999 µM
  viability, T/C: 45.6%
[12]
  viability, T/C: 30.3%
